Test results reported in PMC5632533, “Mechanisms of action and in vivo antibacterial efficacy assessment of five novel hybrid peptides derived from Indolicidin and Ranalexin against Streptococcus pneumoniae” (PeerJ, 2017).

Legend:
[1] = tested on: S. pneumoniae; experiment: ATP efflux assay; format: cell-based, Streptococcus pneumoniae; conditions: peptides 125 µg/ml (RN7-IN7 500 µg/ml); for ATP released from pneumococcal cells after 1 h / ATP released from pneumococcal cells after 3 h: 1 × 10^7 CFU/ml, luciferin/luciferase, ATP standard curve, mean ± SD, three independent experiments
Experimental: The amount of ATP released from pneumococcal cells incubated with hybrid peptides was measured as described previously, with a slight modification ([Tanida et al., 2006]). The ATP determination kit (Molecular Probes, Eugene, OR, USA) was used to measure the amount of ATP released based on the luciferin/luciferase method according to the manufacturer’s instructions. Briefly, S. pneumoniae were grown overnight on Columbia agar with 5% sheep blood. Bacterial suspensions were spectrophotometrically adjusted to (1 × 10^7 CFU/ml) and incubated with hybrid peptides RN7-IN10, RN7-IN9, RN7-IN8 and RN7-IN6 at 125 µg/ml and with RN7-IN7 at 500 µg/ml. The amount of ATP released form the pneumococcal cells were measured at three time points 1, 2 and 3 h. The samples were then centrifuged at 5,000 rpm for 5 min, and ATP efflux was subsequently estimated using an ATP standard curve. Values were obtained from three independent experiments. Ceftriaxone and erythromycin were used as positive controls.

[2] = tested on: S. pneumoniae (highly virulent strain); experiment: In vivo antipneumococcal activity, pneumococcal bacteremia (lethal systemic infection) model; parameters: species or system mice; conditions: for survival of infected mice up to seven days post-infection: 1.5 × 10^2 CFU/mouse IP, 10 mice; for survival of infected mice, treatment via SC and IN routes: up to seven days post-infection
Experimental: Two pneumococcal infection models developed previously in our lab ([Le et al., 2015]) were used to assess the therapeutic efficacy of peptides in vivo. The systemic infection model was used to mimic pneumococcal bacteremia in humans and the pneumococcal pneumonia model was used to mimic pneumococcal pneumonia in humans. A highly virulent strain was used in both the models. The bacterial isolate was grown overnight on Columbia agar with 5% sheep blood at 37 °C under 5% CO2. The bacterial suspension was adjusted to OD625 0.08-0.1 (1 ∼ 2 × 10^8 CFU/ml). Mice tested for lethal systemic infection were inoculated with 1.5 × 10^2 CFU/mouse (100 μl) via IP route. Mice used to assess the Pneumococcal pneumonia model were inoculated with pneumococcal cells of 5 × 10^3 CFU/mouse (50 μl) via the intrathoracic route.
After 1 hr of inoculation, Mice receiving treatment were randomized and divided into six groups. RN7-IN10 and RN7-IN8 were tested at three different doses for each (5 mg/kg, 10 mg/kg and 20 mg/kg) using a group of 10 mice. Graded doses of ceftriaxone (5 mg/kg, 10 mg/kg, […], 40 mg/kg and 80 mg/kg) were also tested to assess the in vivo antibacterial activity of this antibiotic. Only mice injected with PBS were served as uninfected control. Mice injected with bacterial inoculum were used as untreated control group and given sterile distilled water only. Survival of mice was documented for seven days or until death. After seven days, the experiment was ended, the blood and homogenates of the five major organs (kidney, brain, spleen, liver and lung) of the surviving mice were plated on Columbia agar with 5% sheep blood, to detect the presence of pneumococcal cells. […]

[3] = tested on: S. pneumoniae; experiment: Transmission electron microscopy (TEM) of treated cells; format: cell-based, Streptococcus pneumoniae; conditions: 10^8 CFU/ml in CAMHB; 8 × MIC (125 µg/ml; RN7-IN7 500 µg/ml); 1 h, 37 °C, 5% CO2
Experimental: Bacteria were prepared for TEM according to the guidelines of the Electron Microscopy Unit at the Faculty of Medicine, University of Malaya. S. pneumoniae cultures were grown overnight on Columbia agar with 5% sheep blood and suspended in cationally adjusted Mueller-Hinton broth (CAMHB) at 10^8 CFU/ml. […] Cells in cationally adjusted Mueller-Hinton broth (CAMHB) were used as an untreated control. After an hour of incubation, the pneumococcal cells were centrifuged to discard the medium, washed thrice with 10 mM phosphate buffer saline at pH 7.3 and fixed overnight in 4% (v/v) glutaraldehyde. All samples were washed twice with cacodylate buffer, incubated for 2 h in osmium tetroxide buffer (OsO4 1: 1 cacodylate), washed twice with cacodylate buffer and then incubated overnight in cacodylate buffer. All the samples were washed with distilled water twice and incubated for 10 min with uranyl acetate. After this, all samples were then washed twice with distilled water and dehydrated in an ascending series of ethanol: 35% (10 min), 50% (10 min), 70% (10 min), 95% (15 min), and thrice in 100% ethanol (15 min). After dehydration, samples were incubated with propylene oxide (15 min), propylene oxide 1:1 Epon (1 h), propylene oxide 1:3 Epon (2 h) and finally incubated overnight with Epon. All the samples were embedded in agar 100 resin at 37 °C for 5 hr and maintained at 60 °C until viewing. Reichert Ultramicrotome copper grids 3.05 mm (300 square mesh) (Agar Scientific, Essex, United Kingdom) were used to prepare Ultrathin sections. Ethanol-based uranyl acetate and lead citrate were used to stain the samples for 5 min. Transmission electron microscope (Leo Libra 120) was used to capture the images.

[4] = treatment IP 5 mg/kg (peptides at 1 h, 12 h, 24 h post-infection)
[5] = treatment IP 10 mg/kg (peptides at 1 h, 12 h, 24 h post-infection)
[6] = treatment IP 20 mg/kg (peptides at 1 h, 12 h, 24 h post-infection)

FLGGLIKWKWPWWPWRR-NH2 [RN7-IN10, hybrid peptide of ranalexin (residues 1-7) and indolicidin (residues 4-13)]
ATP released from pneumococcal cells after 1 h [1]: 54.5 ± 4.7 pM | ATP released from pneumococcal cells after 3 h [1]: 25.42 ± 3.51 pM | ATP released, Average 1hr ([1]; raw data sheet, mean of 3): 54.4965 pM | ATP released, Average 2hr ([1]; raw data sheet, mean of 3): 41.9293 pM | ATP released, Average 3hr ([1]; raw data sheet, mean of 3): 25.4295 pM | survival of infected mice up to seven days post-infection [2, 4]: failed to treat any of the infected mice | survival of infected mice up to seven days post-infection [2, 5]: 10% | survival of infected mice up to seven days post-infection [2, 6]: 30% | survival of infected mice, treatment via SC and IN routes [2]: none of the mice survived

FLGGLIKWWPWRR-NH2 [RN7-IN6, hybrid peptide of ranalexin (residues 1-7) and indolicidin (residues 8-13)]
TEM: detachment of cell wall from cell membrane [3]: partial disconnection of the cell wall from the cell membrane | ATP released from pneumococcal cells after 1 h [1]: 14.8 ± 0.35 pM | ATP released from pneumococcal cells after 3 h [1]: 11.47 ± 0.32 pM

FLGGLIKWPWWPWRR-NH2 [RN7-IN8, hybrid peptide of ranalexin (residues 1-7) and indolicidin (residues 6-13)]
TEM: detachment of cell wall from cell membrane [3]: partial disconnection of the cell wall from the cell membrane | ATP released from pneumococcal cells after 1 h [1]: 39.03 ± 0.2 pM | ATP released from pneumococcal cells after 3 h [1]: 20.54 ± 1.03 pM | survival of infected mice up to seven days post-infection [2, 4]: failed to treat any of the infected mice | survival of infected mice up to seven days post-infection [2, 5]: 30% | survival of infected mice up to seven days post-infection [2, 6]: 50% | survival of infected mice, treatment via SC and IN routes [2]: none of the mice survived

FLGGLIKKWPWWPWRR-NH2 [RN7-IN9, hybrid peptide of ranalexin (residues 1-7) and indolicidin (residues 5-13)]
TEM: detachment of cell wall from cell membrane [3]: partial disconnection of the cell wall from the cell membrane | ATP released from pneumococcal cells after 3 h [1]: 22.9 ± 3.22 pM
